Legend:
[1] = system: L5178Y mouse T-cell lymphoma cells; assay: MTT cytotoxicity assay (24 h, 1 × 10^4 cells); format: cell-based; conditions: 24 h MTT, n = 3, read-out: Cytotoxicity (IC50 ± SD)
Procedure: (§1) To assess the compounds’ effect on cell growth and viability, we used two different experimental setups of MTT assay. This allowed a comparative evaluation of results obtained from a short-term (24 h) treatment of a relatively higher number (10,000) of cells and those from a long-term (72 h) treatment of a lower cell number (6000), which makes it possible to gain some insight into the cytotoxic vs. cytostatic properties of the compounds. Even though MTT assay is an endpoint detection method, i.e., it provides a single readout of viable cells at the end of the experiment, such a comparison offers a reliable tool to identify antiproliferative activity of compounds that are not cytotoxic.
(§2) L5178Y mouse T-cell lymphoma cells (ECACC Cat. No. 87111908) were obtained from FDA, Silver Spring, MD, USA. These were transfected with pHa MDR1/A retrovirus as described previously. ABCB1-expressing L5178YMDR cells were selected by culturing the infected cells with colchicine. The cell lines were cultured in McCoy’s 5A medium supplemented with 10% heat inactivated horse serum, 2 mM L-glutamine, and penicillin–streptomycin mixture.
(§3) MTT assay was performed in 96-well flat-bottomed microtiter plates as described before. Briefly, a 10 mM concentration stock solution in DMSO was prepared for each compound. These were diluted in 100 μL of McCoy’s 5A medium. Subsequently, 1 × 10^4 (cytotoxicity assay) or 6 × 10^3 (antiproliferative assay) T-cell mouse lymphoma cells in 100 μL of medium were added to each well, except for the medium control wells.
(§4) The culture plates were further incubated at 37 °C for 24 h (cytotoxicity assay) or 72 h (antiproliferative assay); at the end of the incubation period, 20 μL of MTT solution (from a 5 mg/mL stock) was added to each well. After incubation at 37 °C for 4 h, 100 μL of SDS solution (10% in 0.01 M HCI) was added to each well and the plates were further incubated at 37 °C overnight. The cell growth was determined by measuring the optical density at 540 nm (ref. 630 nm) with a Multiscan EX ELISA reader (Thermo Labsystems, Cheshire, WA, USA). IC50 values were calculated by variable slope nonlinear regression using the log(inhibitor) vs. normalized response of GraphPad Prism 5.01 (GraphPad Software Inc., San Diego, CA, USA).

[2] = system: L5178YMDR cells (ABCB1-expressing); assay: MTT cytotoxicity assay (24 h, 1 × 10^4 cells); format: cell-based; conditions: Mus musculus, 24 h MTT, n = 3, read-out: Cytotoxicity (IC50 ± SD)
Procedure: as §1, §2, §3, §4

[3] = MTT cytotoxicity assay (24 h); format: cell-based; conditions: human, MRC-5 human embryonal lung fibroblasts; MRC-5, 24 h MTT, n = 3; read-out: Cytotoxicity (IC50 ± SD)
Procedure: as §1
(§5) MRC-5 human embryonal lung fibroblasts (CCL-171, ATCC) were acquired from Sigma-Aldrich (Merck, KGaA, Darmstadt, Germany), and were cultured in EMEM medium containing 4.5 g/L glucose and supplemented with a non-essential amino acid mixture, a selection of vitamins, and 10% of FBS.
(§6) The adherent human fibroblast cells were seeded in 100 μL of EMEM medium overnight before each assay. Two-fold serial dilutions of the compounds (0.19–100 µM) were prepared in separate plates, then transferred to the plates containing the adherent cell lines.
as §4

[4] = system: L5178Y mouse T-cell lymphoma cells; assay: MTT antiproliferative assay (72 h, 6 × 10^3 cells); format: cell-based; conditions: Mus musculus; L5178Y, 72 h MTT, n = 3; read-out: Antiproliferative Effect (IC50 ± SD)
Procedure: as §1, §2, §3, §4

[5] = system: L5178YMDR cells (ABCB1-expressing); assay: MTT antiproliferative assay (72 h, 6 × 10^3 cells); format: cell-based; conditions: Mus musculus, 72 h MTT, n = 3, read-out: Antiproliferative Effect (IC50 ± SD)
Procedure: as §1, §2, §3, §4

[6] = system: MRC-5 human embryonal lung fibroblasts; assay: MTT antiproliferative assay (72 h); format: cell-based; conditions: Homo sapiens, MRC5; MRC-5, 72 h MTT, n = 3; read-out: Antiproliferative Effect (IC50 ± SD)
Procedure: as §1, §5, §6, §4

[7] = target: T1, ABCB1 (Homo sapiens, UniProt P08183); assay: ABCB1 inhibition assay (rhodamine 123 accumulation, flow cytometry); format: cell-based; conditions: human, probe rhodamine 123 (5.2 µM); for inhibition at 20 min, 2 µM / inhibition at 20 min, 20 µM: n = 1
T1 construct: expressed in transfected cells; host or cells: L5178Y mouse T-cell lymphoma cells transfected with pHa MDR1/A retrovirus, selected with colchicine (L5178YMDR)
Procedure: ABCB1 inhibition was determined by the intracellular accumulation of rhodamin 123 as reported before. Briefly, 2 × 10^6 cells/mL of L5178Y and L5178YMDR cell lines were re-suspended in serum-free McCoy’s 5A medium and distributed in 0.5 mL aliquots into Eppendorf centrifuge tubes. The compounds were added at a final concentration of 2 or 20 μM and the samples were incubated for 10 min at room temperature. Tariquidar was used as positive control and DMSO as negative control; for the latter, no activity was observed. Subsequently, 10 μL (5.2 μM final concentration) of the ABCB1 substrate fluorescent dye rhodamine 123 was added and the cells were incubated further for 20 min at 37 °C, washed twice and re-suspended in 1 mL PBS for analysis. Fluorescence of the cell population was measured with a PartecCyFlow® flow cytometer (Partec, Münster, Germany). Mean fluorescence intensity percentage was calculated for the treated vs. untreated L5178YMDR cells. Inhibition percentage for the treated cells was calculated from the corresponding values of the untreated L5178Y and L5178YMDR cells, representing 100% and 0% inhibition, respectively.

[8] = system: L5178YMDR cells; assay: Combination assay with doxorubicin (checkerboard microplate method, MTT); format: cell-based, mouse; design: Dm (antilog of the x-intercept of the median-effect plot): unit not given here; conditions: for CIavg (weighted average CI): (CI50 + 2CI75 + 3CI90)/6
Procedure: Compounds 7, 10, 11, 13, and 14 had sufficient individual antiproliferative properties for their assessment of chemo-sensitizing activity. This was carried out as an antiproliferative assay on L5178YMDR cells in combination with doxorubicin, arranged according to the checkerboard microplate method.
The checkerboard microplate method was used to evaluate the compounds’ interaction with doxorubicin, as described before. Briefly, doxorubicin (2 mg/mL, Teva Pharmaceuticals, Budapest, Hungary) was serially diluted in the horizontal direction (100 µL per well), and the ecdysteroid was subsequently diluted in the vertical direction (50 µL per well). L5178YMDR cells were re-suspended in culture medium and added to each test well in 50 µL to contain 1 × 10^4 cells per well, and 50 µL of medium was added to the medium control wells. The plates were incubated for 72 h at 37 °C in a CO2 incubator and, at the end of the incubation period, the cell growth was determined by MTT assay as described above. Cell viability data were analyzed by the Calcusyn software using the Chou method, and drug interactions were expressed as combination index (CI) values, in which 0 < CI < 1, CI = 1, and CI > 1 refer to synergism, additivity, and antagonism, respectively.

[9] = L5178YMDR, rhodamine 123 accumulation
[10] = drug ratio 11.6:1, with doxorubicin
[11] = drug ratio 23.1:1, with doxorubicin
[12] = drug ratio 46.4:1, with doxorubicin
[13] = drug ratio 23.2:1, with doxorubicin
[14] = drug ratio 92.8:1, with doxorubicin
[15] = drug ratio 185.6:1, with doxorubicin

Compound	IC50 [1]	IC50 [2]	IC50 at 24 h [3]	IC50 [4]	IC50 [5]	IC50 [6]	inhibition at 20 min, 2 µM [7, 9]	inhibition at 20 min, 20 µM [7, 9]	also measured
CC(=O)[C@H]1CC[C@@]2(O)C3=CC(=O)[C@@H]4C[C@H]5OC(C)(C)O[C@H]5C[C@]4(C)[C@H]3[C@H](O)C[C@]12C [Compound 3]	> 100 µM	> 100 µM	> 100 µM	75.5 ± 4.1 µM	> 100 µM	21.4 ± 0.2 µM	-0.03%	-0.35%	–
CC(=O)[C@H]1CC[C@@]2(O)C3=CC(=O)[C@@H]4C[C@H]5OC(C)(C)O[C@H]5C[C@]4(C)C3=CC[C@]12C [Compound 5]	> 100 µM	> 100 µM	> 100 µM	56.5 ± 6 µM	80.2 ± 2.1 µM	20.9 ± 3.6 µM	0.2%	-0.41%	–
CC(=O)[C@H]1CC=C2C3=CC(=O)[C@@H]4C[C@H]5OC(C)(C)O[C@H]5C[C@]4(C)C3=CC[C@@]21C [Compound 6]	91.1 ± 6.8 µM	> 100 µM	> 100 µM	31.2 ± 3.9 µM	54.1 ± 2.3 µM	> 100 µM	-0.38%	0.13%	–
CC(=O)[C@H]1CC[C@@]2(F)C3=CC(=O)[C@@H]4C[C@H]5OC(C)(C)O[C@H]5C[C@]4(C)C3=CC[C@]12C [Compound 7]	38.6 ± 1.6 µM	57.5 ± 6.3 µM	> 100 µM	15.2 ± 1.9 µM	20 ± 2.4 µM	> 100 µM	-0.24%	0.29%	CI at ED75 [8, 10]: 0.76; CI at ED90 [8, 10]: 0.59; Dm (antilog of the x-intercept of the median-effect plot) [8, 10]: 4.05; CIavg (weighted average CI) [8, 10]: 0.71; CI at ED75 [8, 11]: 1.26; CI at ED90 [8, 11]: 1.37; Dm (antilog of the x-intercept of the median-effect plot) [8, 11]: 7.83; CIavg (weighted average CI) [8, 11]: 1.30; CI at ED75 [8, 12]: 0.84; CI at ED90 [8, 12]: 0.60; Dm (antilog of the x-intercept of the median-effect plot) [8, 12]: 11.56; CIavg (weighted average CI) [8, 12]: 0.78
CC(=O)[C@H]1CC[C@@]2(O)C3=CC(=O)[C@@H]4C[C@H]5OC(C)(C)O[C@H]5C[C@]4(C)[C@H]3CC[C@]12C [Compound 9, poststerone 2,3-acetonide]	> 100 µM	> 100 µM	> 100 µM	49.2 ± 3.4 µM	85.2 ± 5.1 µM	> 100 µM	-0.4%	-0.42%	–
CC(=O)[C@H]1CC=C2C3=CC(=O)[C@@H]4C[C@H]5OC(C)(C)O[C@H]5C[C@]4(C)[C@H]3CC[C@@]21C [Compound 10]	72.9 ± 5.6 µM	83 ± 5 µM	> 100 µM	27.7 ± 0.6 µM	42.3 ± 1.5 µM	> 100 µM	-0.38%	-0.16%	CI at ED75 [8, 13]: 0.50; CI at ED90 [8, 13]: 0.33; Dm (antilog of the x-intercept of the median-effect plot) [8, 13]: 6.50; CIavg (weighted average CI) [8, 13]: 0.46; CI at ED75 [8, 12]: 0.51; CI at ED90 [8, 12]: 0.30; Dm (antilog of the x-intercept of the median-effect plot) [8, 12]: 10.99; CIavg (weighted average CI) [8, 12]: 0.46; CI at ED75 [8, 14]: 0.55; CI at ED90 [8, 14]: 0.35; Dm (antilog of the x-intercept of the median-effect plot) [8, 14]: 14.02; CIavg (weighted average CI) [8, 14]: 0.50; CI at ED75 [8, 15]: 0.61; CI at ED90 [8, 15]: 0.36; Dm (antilog of the x-intercept of the median-effect plot) [8, 15]: 19.47; CIavg (weighted average CI) [8, 15]: 0.55
CC(=O)O[C@H]1C[C@@]2(C)C(=C(O)C(=O)C3=C2CC[C@@]2(C)C3=CC[C@@H]2[C@@]2(C)OC(C)(C)O[C@@H]2CCC(C)(C)O)C[C@H]1O [Compound 16, calonysterone 2-acetate 20,22-acetonide]	63 ± 4.4 µM	78.7 ± 6.7 µM	> 100 µM	50.3 ± 0.2 µM	40 ± 3.4 µM	67.2 ± 14.6 µM	0.71%	15.7%	–
CC(=O)O[C@H]1C[C@]2(C)C3=CC[C@@]4(C)C(=CC[C@@H]4[C@@]4(C)OC(C)(C)O[C@@H]4CCC(C)(C)O)C3=C(O)C(=O)[C@@]23C[C@@H]13 [Compound 17]	27.2 ± 1 µM	35.9 ± 0.6 µM	–	20.3 ± 1 µM	14.3 ± 0.5 µM	5.9 ± 1.2 µM	1.08%	45.5%	inhibition at 20 min ([7]; concentration not given, read-out: direct ABCB1 inhibition): ~50%
COc1cccc2c1C(=O)c1c(O)c3c(c(O)c1C2=O)C[C@@](O)(C(=O)CO)C[C@@H]3O[C@H]1C[C@H](N)[C@H](O)[C@H](C)O1 [Doxorubicin, reference compound]	0.3 ± 0.1 µM	8.1 ± 2.8 µM	1.7 ± 0.5 µM	0.014 ± 0.002 µM	0.71 ± 0.2 µM	–	–	–	–
COc1cc2c(cc1OC)CN(CCc1ccc(NC(=O)c3cc(OC)c(OC)cc3NC(=O)c3cnc4ccccc4c3)cc1)CC2 [tariquidar, reference compound]	–	–	–	–	–	–	–	–	inhibition at 20 min, 0.02 µM ([7]; 20 nM, L5178YMDR, rhodamine 123 accumulation, read-out: ABCB1 inhibition, positive control): 87.5%
